Test results: US9119856B1, “Method for treating cancer using a dihydropyrimidine derivative” (KING SAUD UNIVERSITY, priority 2015, dated 2015)
Entries after “also recorded” stand apart in the source; their conditions may differ.

What was measured:
MCF-7 cells = assay: Flow cytometric DNA cell cycle analysis; assay type: cell-based, human; conditions: DHP-5 treated vs untreated
Procedure: 2×10^6 cells were fixed in 1 ml ethanol (70%) for 60 min. at room temperature. Harvested cells were resuspended in 1 ml Na citrate (50 mM) containing 250 μg RNase A and incubated at 50° C. for 60 min. Next, cells were resuspended in the same buffer containing 4 μg propidium iodine (PI) and incubated for 30 min. before being analyzed by flow cytometry (Becton Dickinson, San Jose, Calif., USA). The percentage of cells in various cell cycle phases was determined by using Cell Quest Pro software (Becton Dickinson).

lovo colon cancer cells = assay: Side population inhibition on lovo colon cancer cells; assay type: cell-based
Procedure: The relationship of compound structure and compound activity of various Formula I compounds, i.e., 5-benzoyl-3,4-dihydropyrimidin-2(1H)-one/thione compounds, on inhibition of side population cancer stem cells was studied. The various 5-benzoyl-3,4-dihydropyrimidin-2(1H)-one/thione compounds and the corresponding inhibition activity are provided below in Table 1.
The newly synthesized compounds DHP (1-9) were evaluated for side population inhibition on lovo colon cancer cells (%) at 10 μM concentration. […] It was noted that most of the compounds which include a methoxy group at R1 were active. The methoxy group seems to help the molecule to align in protein pocket. Compounds with an oxygen atom at R2 were also active. It seems that the oxygen atom at position R2 also plays some important role in binding with protein pocket.
For DCV staining, cells were pelleted and suspended in DMEM cell culture medium at a concentration of 1*10^6 cells/ml. DCV (Invitrogen Molecular Probes®, Eugene, Oreg.) was added at a final staining concentration of 10 μM, as this concentration gave optimal separation between SP and non SP cells. PI stained was used to exclude dead cells. Functionally, to gate only side population cells, Verapamil 200 μM or FTC 10 μg/ml was used. All analyses were performed on a FACS LSRII (BD Biosciences). […]

[1] = test system: tumor derived cells of LOVO xenograft; assay: Side population analysis of tumor derived cells of LOVO xenograft; assay type: in vivo, Nude mice; conditions: DHP-5 50 mg/kg for 14 days, Verapamil 200 μM
Procedure: (§1) For DCV staining, cells were pelleted and suspended in DMEM cell culture medium at a concentration of 1*10^6 cells/ml. DCV (Invitrogen Molecular Probes®, Eugene, Oreg.) was added at a final staining concentration of 10 μM, as this concentration gave optimal separation between SP and non SP cells. PI stained was used to exclude dead cells. Functionally, to gate only side population cells, Verapamil 200 μM or FTC 10 μg/ml was used. All analyses were performed on a FACS LSRII (BD Biosciences). Debris and cell clusters were excluded during side-scatter and forward-scatter analyses.
A side population analysis of tumor derived cells of LOVO xenograft that were untreated (FIG. 4A), treated with side population inhibitor reference drug Verapamil 200 μM (FIG. 4B), and side population analysis of tumor cells derived from animals treated by DHP-5 50 mg/kg for 14 days.
Nude mice (Jackson Laboratories, Bar Harbor, Me., USA) were injected with 4*106 cells of MDA-MB-468 and LOVO subcutaneously in the right flank, and tumor size was measured weekly using a caliper. When the tumor reached approximately 400 mm^3 […], the mice were divided into control treated groups, the treatment including administration of DHP-5 (50 mg/Kg) via intraperitoneal injection daily for 14 days. The general toxicity of the treatment was determined by measuring the total body weight of the treated and control mice. […]

[2] = test system: LOVO (colon cancer xenograft); assay: Antitumor activity in mice, LOVO colon cancer xenograft; assay type: in vivo, Nude mice; conditions: 50 mg/Kg intraperitoneal daily for 14 days
Procedure: (§2) Nude mice (Jackson Laboratories, Bar Harbor, Me., USA) were injected with 4*106 cells of MDA-MB-468 and LOVO subcutaneously in the right flank, and tumor size was measured weekly using a caliper. When the tumor reached approximately 400 mm^3 […], the mice were divided into control treated groups, the treatment including administration of DHP-5 (50 mg/Kg) via intraperitoneal injection daily for 14 days. The general toxicity of the treatment was determined by measuring the total body weight of the treated and control mice. The breeding, care and sacrifice of the animals were in accordance with the protocols approved by the Animal Care and Use Committee of the King Faisal Specialist Hospital and Research Centre.
(§3) Tumor growth of MDA-MB-468 (breast cancer xenograft) and LOVO (colon cancer xenograft) was recorded in untreated mice groups and DHP-5 (50 mg/kg) treated mice groups.

[3] = Apoptosis induction in vitro; assay type: cell-based
breast cancer cells = assay: Self-renewal ability of breast cancer cells; assay type: cell-based
[4] = Cell proliferation in vitro; assay type: cell-based
[5] = test system: MDA-MB-468 (breast cancer xenograft); assay: Antitumor activity in mice, MDA-MB-468 breast cancer xenograft; assay type: in vivo, Nude mice; conditions: 50 mg/Kg intraperitoneal daily for 14 days
Procedure: as §2, §3

[6] = test system: MCF-7 breast cancer cells; assay: Side population analysis of MCF-7 breast cancer cells (DyeCycle Violet staining); assay type: cell-based, human; conditions: DHP-5 50, 75 and 100 μM, Verapamil 200 μM
Procedure: as §1

ABCG2 [7] = molecular target: T1, ABCG2 (Homo sapiens, UniProt Q9UNQ0); assay: Mitoxantrone accumulation in MCF-7 cells; assay type: cell-based
T1 construct: endogenous in cells; host or cells: MCF-7 cells
T1 sequence (Q9UNQ0 1-655): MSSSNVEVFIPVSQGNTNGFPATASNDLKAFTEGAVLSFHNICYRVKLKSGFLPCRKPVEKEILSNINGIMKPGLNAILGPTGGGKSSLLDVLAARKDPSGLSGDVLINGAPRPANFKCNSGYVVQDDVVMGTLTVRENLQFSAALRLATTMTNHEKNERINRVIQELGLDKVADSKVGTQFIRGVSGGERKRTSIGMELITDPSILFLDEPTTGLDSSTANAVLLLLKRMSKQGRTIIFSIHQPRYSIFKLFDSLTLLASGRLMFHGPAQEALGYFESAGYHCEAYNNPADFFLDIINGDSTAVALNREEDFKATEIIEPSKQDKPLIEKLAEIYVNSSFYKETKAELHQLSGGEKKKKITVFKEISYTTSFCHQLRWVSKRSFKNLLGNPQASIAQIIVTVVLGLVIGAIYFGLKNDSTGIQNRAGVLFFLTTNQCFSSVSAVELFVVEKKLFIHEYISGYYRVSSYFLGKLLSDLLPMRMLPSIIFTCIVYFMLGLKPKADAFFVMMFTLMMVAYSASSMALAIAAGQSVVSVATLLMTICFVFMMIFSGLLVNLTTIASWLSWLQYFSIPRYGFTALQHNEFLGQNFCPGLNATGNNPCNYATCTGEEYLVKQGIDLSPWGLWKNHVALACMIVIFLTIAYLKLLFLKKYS

[8] = General toxicity by total body weight of treated mice; assay type: in vivo; conditions: animal models of breast and colon cancer
Procedure: as §2

ABCG2 [9] = assay: Immunofluorescence staining of ABCG2 in MCF-7 cells; assay type: cell-based, human

CCOc1ccc(C2NC(=O)NC=C2C(=O)c2cc(OC)c(OC)c(OC)c2)cc1 (stereo not shown) [DHP-5, 4-(4-ethoxyphenyl)-5-(3,4,5-trimethoxybenzoyl)-3,4-dihydropyrimidin-2(1H)-one]
cell cycle phase distribution (MCF-7 cells): increased accumulation of treated cells in G2+M mitosis phase
side population inhibition, activity in words (lovo colon cancer cells; 10 μM): moderately active
inhibition at 10 µM (lovo colon cancer cells; Homo sapiens): 58.8%
inhibitory effect on side population cancer stem cells of xenograft tumor cells versus Verapamil [1]: more potent inhibitory effect of DHP-5 on side population cancer stem cells than reference drug Verapamil
tumor growth, LOVO colon cancer xenograft [2]: superior efficacy compared to reference drug Doxorubicin; also recorded: shrinking of tumor
apoptosis [3]: induced apoptosis
self-renewal ability of breast cancer cells (breast cancer cells): blocking self-renewal ability of breast cancer cells in a dose dependent manner
cell proliferation [4]: blocked cell proliferation
tumor growth, MDA-MB-468 breast cancer xenograft [5]: superior efficacy compared to reference drug Doxorubicin; also recorded: shrinking of tumor
inhibitory effect on side population cancer stem cells versus Verapamil [6]: more potent inhibitor of side population cells than reference drug Verapamil; also recorded: more potent inhibitory effect of DHP-5 on side population cancer stem cells than reference drug Verapamil
Mitoxantrone accumulation (selective ABCG2 substrate) (ABCG2 [7]): increase in Mitoxantrone accumulation
general toxicity [8]: without any sign of general toxicity
expression of ABCG2 (ABCG2 [9]): decreased the expression of ABCG2
